Source: US20180228743A1, “COMPOUNDS AND METHODS OF PROMOTING MYELINATION” (Case Western Reserve University, priority 2016, published 2018)
Values joined by “and” are separate entries in the source; they are usually repeats but may differ in a detail not shown here. Equal values may be shown once. Where a name gives a salt, the structure may show the parent alone. Read-outs that look alike come from different tables or passages of the source.

Tests used:
EpiSC-derived OPCs [1] = assay: High-throughput screening of 3,000 bioactive small molecules for MBP+ oligodendrocyte formation from OPCs; format: cell-based, mouse; conditions: 2 μM, 72 h; for % 0ligos: MBP+ oligodendrocytes; for fold induction at 2 µM: Mus musculus, relative to DMSO controls of the same plate, read-out: fold-change in % MBP + oligodendrocytes
From the text: Plates were imaged on the Operetta High Content Imaging and Analysis system (PerkinElmer) and a set of 6 fields captured from each well resulting in an average of 1200 cells being scored per well. Analysis (PerkinElmer Harmony and Columbus software) began by identifying intact nuclei stained by DAPI; that is, those traced nuclei that were larger than 300 μm^2 in surface area. Each traced nucleus region was then expanded by 50% and cross-referenced with the […] (MBP) stain to identify oligodendrocyte nuclei, and from this the percentage of oligodendrocytes was calculated. In some experiments, the total process length of MBP+ oligodendrocytes was calculated as previously described.
EpiSC-derived OPCs were grown and expanded in poly-ornithine and laminin-coated flasks before harvesting for plating. Cells were dispensed in differentiation media supplemented with Noggin (R&D Systems; 100 ng/ml), Neurotrophin 3 (R&D Systems; 10 ng/ml), cAMP (Sigma; 50 μM), and IGF-1 (R&D Systems; 100 ng/ml)) using a Biotek EL406 Microplate Washer Dispenser (Biotek) equipped with 5 μL dispense cassette (Biotek), into poly-D-lysine/laminin (Sigma, L2020; 4 μg/ml)-coated sterile, 384-well, CellCarrier ultra plates (PerkinElmer), to a final density of 12,500 cells per well and allowed to attach for 45 min before addition of drug. A 3 mM stock of bioactive compound library in dimethylsulphoxide (DMSO) were prepared in an Abgene storage 384-well plate (ThermoFisher Scientific; AB1055). These were added to assay plates using a 50 nL solid pin tool attached to Janus automated workstation (Perkin Elmer), resulting in a final screening concentration of 2 μM. Cells were incubated at 37° C. for 1 hour and then T3 (Sigma; 40 ng/ml) was added to all wells except negative controls, to which FGF (20 ng/ml) was added instead. Negative controls and T3-alone were included in each assay plate. After incubation at 37° C. for 72 h, cells were fixed, washed and stained similar to 96-well OPC assay protocol, although all the washing steps were performed using a Biotek EL406 Microplate Washer Dispenser (Biotek) equipped with a 96-well aspiration manifold. Cells were stained with DAPI (Sigma; 1 μg/ml) and MBP antibody (Abcam, ab7349; 1:100). Plates were imaged on the Operetta High Content Imaging and Analysis system (PerkinElmer) and a set of 4 fields captured from each well resulting in an average of 700 cells being scored per well. Analysis was performed as in High-Content Imaging and Analysis, above. All plates for the primary screen were processed and analyzed simultaneously to minimize variability. Molecules causing more than 20% reduction in nuclear count relative to DMSO control wells were removed from consideration, and hits were called on the basis of largest fold-increase in percentage of MBP+ oligodendrocytes relative to DMSO controls within the same plate.

rat CYP51 = target: T1, rat CYP51 (Rattus norvegicus, UniProt Q64654); assay: CYP51 enzymatic assay (LC/MS quantitation of FF-MAS); format: biochemical; conditions: lanosterol 50 μM, 30 minutes; read-out: IC50 for inhibition of rodent CYP51 in vitro
T1 construct: purchased Cypex, Inc
T1 sequence (Q64654 1-503): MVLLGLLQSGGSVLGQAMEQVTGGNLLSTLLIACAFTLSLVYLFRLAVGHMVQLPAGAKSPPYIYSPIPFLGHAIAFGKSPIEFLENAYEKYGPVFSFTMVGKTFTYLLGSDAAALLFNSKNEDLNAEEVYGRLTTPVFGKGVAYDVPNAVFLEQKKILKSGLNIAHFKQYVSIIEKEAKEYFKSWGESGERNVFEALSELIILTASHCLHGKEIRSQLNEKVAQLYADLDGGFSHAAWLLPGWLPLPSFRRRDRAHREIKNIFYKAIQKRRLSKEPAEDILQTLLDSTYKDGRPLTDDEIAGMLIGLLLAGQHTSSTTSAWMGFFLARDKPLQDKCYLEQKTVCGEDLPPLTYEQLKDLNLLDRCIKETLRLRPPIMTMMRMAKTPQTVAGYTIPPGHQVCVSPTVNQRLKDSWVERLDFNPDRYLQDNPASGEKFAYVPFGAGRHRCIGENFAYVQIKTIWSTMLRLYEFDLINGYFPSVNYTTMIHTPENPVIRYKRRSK
Description: Finally, 15 μl of each reaction/isopropanol mixture was injected onto a SCIEX Triple Quad 6500 LC-MS/MS system using an APCI ion source in positive ion mode with a Shimadzu UFLC-20AD HPLC and a Phenomenex

EpiSC-derived OPCs [2] = assay: Oligodendrocyte formation on electrospun microfibers; format: cell-based, mouse; conditions: 14 days
Description: A 12-well plate containing Mimetex aligned scaffold (microfiber plate, AMSBIO, AMS.TECL-006-1X, Electrospun poly-L-lactide Scaffold, […] cell crown inserts) was prepared as previously described. Briefly, inserts were sterilized with 70% ethanol and washed with PBS before being coated with polyornithine and laminin. After laminin coating, 100,000 cells/mL of EpiSC-derived OPCs were plated in differentiation medium. After 24 h the media was replaced with fresh media containing small molecule treatments. Every 48 h the media was replaced with fresh compound containing media for a total of 14 days. Plates were fixed with 4% PFA, permeabilized with 0.1% Triton X-100, and blocked with 10% donkey serum (v/v) in PBS for 60 min. Plates were stained for MBP (Abcam, ab7349; 1:100) and DAPI staining (Sigma; 5 μg/ml). After staining, the inserts were moved into new 12-well plate and covered with 2 mL of PBS before imaging in Operetta high content Imaging and analysis system. […] Analysis (PerkinElmer Harmony and Columbus software) identified intact nuclei stained by DAPI and calculated the MBP signal intensity per cell per well. Microfiber insert tracking images were taken using a Leica DMi8 with a 20× Dry/NA 0.40 objective. Microfiber plate inserts were mounted using Flouromount-G (SouthernBiotech) and allowed to partially harden before coverslips were added and the insert ring was removed. Confocal images were obtained on a Leica SP8 confocal scanning microscope, with 40× oil/NA 1.30 objective. Confocal stacks of 0.336 μm z-steps were taken at 1024×1024. Each fluorophore was excited sequentially and all contrast and brightness changes were applied consistently between images.

EpiSC-derived OPCs [3] = assay: In vitro phenotypic screening of OPCs (MBP+ oligodendrocytes at 72 h); format: cell-based, mouse; conditions: for oligodendrocyte formation in combination with ketoconazole: ketoconazole 2.5 μM (maximally effective dose)
OPCs = assay: GC/MS-based sterol profiling in OPCs; format: cell-based, mouse; conditions: for sterol levels / sterol intermediate accumulation in OPCs: 24 h treatment (siRNA 96 h)
T47D cells = conditions: 5 days
EBP = target: T2, EBP (Mus musculus, UniProt P70245); assay: EBP enzymatic assay (GC/MS); format: biochemical; conditions: 10 μM, zymostenol 25 μM
T2 construct: active EBP was obtained from mouse microsomes; from tissue
T2 sequence (P70245 1-230): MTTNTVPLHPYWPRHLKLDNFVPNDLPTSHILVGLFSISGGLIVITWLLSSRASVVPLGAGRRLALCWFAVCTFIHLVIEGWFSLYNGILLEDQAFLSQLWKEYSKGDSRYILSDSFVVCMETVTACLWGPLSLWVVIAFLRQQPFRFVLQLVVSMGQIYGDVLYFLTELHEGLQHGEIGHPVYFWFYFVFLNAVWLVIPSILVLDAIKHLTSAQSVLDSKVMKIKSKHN

[4] = mouse; cited from earlier work
LPC-lesioned spinal cord = assay: LPC focal demyelination of spinal cord, remyelination histology; format: in vivo, mouse; conditions: ifenprodil 10 mg per kg, tamoxifen 2 mg per kg, daily intraperitoneal, 8 days from day 4 after lesion
[5] = tested on: human glioma cells (GBM528); assay: GC/MS sterol profiling in human glioma cell line; format: cell-based; conditions: 24 h
mouse brain = assay: Analysis of mouse brain sterol levels (GC/MS); format: in vivo; conditions: miconazole 10 mg per kg, ifenprodil 10 mg per kg, tamoxifen 2 mg per kg; 3 days intraperitoneal dosing
Description: Mice were anaesthetized with isoflurane and perfused with phosphate buffered saline to remove blood from the brain. Brains were collected and flash frozen using liquid nitrogen. The samples were pulverized and 50-100 milligrams of tissue were collected for further processing. A modified Folch protocol was used for extraction of sterols. Briefly, samples were resuspended in a 2:1 chloroform/methanol mixture and homogenized. Cell debris was removed by centrifugation at 4000 g for 10 min. The solution was dried under air and resuspended in hexane with a cholesterol-D7 standard and dried again. Lipids were derivatized with 70 al of bis(trimethylsilyl)trifluoroacetamide; 2 μls were injected and analyzed by GC/MS as described above.

[6] = tested on: human induced pluripotent stem cell-derived cortical spheroids; assay: GC/MS sterol profiling in human cortical spheroids; format: cell-based; conditions: 2 μM, 24 h

CC(=O)N1CCN(c2ccc(OCC3COC(Cn4ccnc4)(c4ccc(Cl)cc4Cl)O3)cc2)CC1 (stereo not shown) [Ketoconazole]
% 0ligos (EpiSC-derived OPCs [1]): 52.77%
IC50 (rat CYP51): 0.3 to 0.7 µM
MBP+ oligodendrocyte tracking along and wrapping of microfibers (EpiSC-derived OPCs [2]): significantly enhanced MBP+ oligodendrocyte tracking along and wrapping of the microfibers

CN(C)CCOc1ccc(/C(=C(/CCCl)c2ccccc2)c2ccccc2)cc1 [toremifene, Toremifene]
formation of MBP+ oligodendrocytes from OPCs (EpiSC-derived OPCs [3]; 72 h): enhanced MBP+ oligodendrocyte generation over a wide dose range
enzyme inhibited in OPCs as indicated by sterol profile (OPCs; 24 h): inhibited EBP
antiestrogen effect on estrogen-dependent growth (T47D cells): comparable antiestrogen effects

CCC(C)(C)c1ccc(CC(C)CN2C[C@@H](C)O[C@@H](C)C2)cc1 (stereo partly shown) [amorolfine, Amorolfine]
formation of MBP+ oligodendrocytes from OPCs (EpiSC-derived OPCs [3]; 72 h): enhanced formation of MBP+ oligodendrocytes
MBP+ oligodendrocyte tracking along and wrapping of microfibers (EpiSC-derived OPCs [2]): significantly enhanced MBP+ oligodendrocyte tracking along and wrapping of the microfibers

OCCOCCN1CCN(C(c2ccccc2)c2ccc(Cl)cc2)CC1 (stereo not shown) [Hydroxyzine 2HCl]
cell viability (% relative to DMS0) (EpiSC-derived OPCs [1]): 134.19%
% 0ligos (EpiSC-derived OPCs [1]): 40.63%
fold induction at 2 µM (EpiSC-derived OPCs [1]): 4.8
inhibition of EBP enzymatic activity (EBP): directly inhibiting EBP enzymatic activity

Clc1ccccc1C(c1ccccc1)(c1ccccc1)n1ccnc1 [Clotrimazole]
cell viability (% relative to DMS0) (EpiSC-derived OPCs [1]): 112.83% and 122.50%
fold induction at 2 µM (EpiSC-derived OPCs [1]): 3.85
IC50 (rat CYP51): 0.3 to 0.7 µM

CN1[C@@H]2CC[C@H]1C[C@@H](OC(c1ccccc1)c1ccccc1)C2 [benztropine, Benztropine]
oligodendrocyte formation in combination with ketoconazole (EpiSC-derived OPCs [3]; 72 h): did not enhance differentiation above levels seen for ketoconazole alone
sterol levels / sterol intermediate accumulation in OPCs (OPCs): induced accumulation of zymostenol and zymosterol and decreased basal sterol levels
inhibition of EBP enzymatic activity (EBP): clear inhibition

CC(C(O)c1ccc(O)cc1)N1CCC(Cc2ccccc2)CC1 (stereo not shown) [lfenprodil Tartrate]
cell viability (% relative to DMS0) (EpiSC-derived OPCs [1]): 103.79%
cell viability (% relative to DMS0) (EpiSC-derived OPCs [1]; listed as lfenprodil tartrate): 106.02%
fold induction at 2 µM (EpiSC-derived OPCs [1]): 4.89
blood brain barrier penetration [4]: known to cross the mouse blood brain barrier
remyelination of LPC lesion (LPC-lesioned spinal cord): remyelination was widespread throughout the lesion
sterol intermediate accumulation in human glioma cell line [5]: caused accumulation of the expected sterol intermediates
accumulation of 8,9-unsaturated sterols in brain (mouse brain): induced significant accumulation of 8,9-unsaturated sterols in the brain
8,9-unsaturated sterol accumulation in human cortical spheroids [6]: led to 8,9-unsaturated sterol accumulation

COc1ccc(S(=O)(=O)N2CCC(N3CCC(C)CC3)CC2)cc1 [TASIN-1]
formation of MBP+ oligodendrocytes from OPCs (EpiSC-derived OPCs [3]; 72 h): enhanced formation of MBP+ oligodendrocytes
MBP+ oligodendrocyte tracking along and wrapping of microfibers (EpiSC-derived OPCs [2]): significantly enhanced MBP+ oligodendrocyte tracking along and wrapping of the microfibers
inhibition of EBP enzymatic activity (EBP): clear inhibition

Clc1ccc(COC(Cn2ccnc2)c2ccc(Cl)cc2Cl)c(Cl)c1 (stereo not shown) [miconazole, Miconazole]
IC50 (rat CYP51): 0.3 to 0.7 µM
sterol intermediate accumulation in human glioma cell line [5]: caused accumulation of the expected sterol intermediates
8,9-unsaturated sterol accumulation in human cortical spheroids [6]: led to 8,9-unsaturated sterol accumulation

OCCOc1ccc(/C(=C(/CCCl)c2ccccc2)c2ccccc2)cc1 [ospemifene, Ospemifene]
formation of MBP+ oligodendrocytes from OPCs (EpiSC-derived OPCs [3]): did not enhance differentiation to MBP+ oligodendrocytes
enzyme inhibited in OPCs as indicated by sterol profile (OPCs): did not inhibit EBP in OPCs
antiestrogen effect on estrogen-dependent growth (T47D cells): comparable antiestrogen effects

CC/C(=C(\c1ccccc1)c1ccc(OCCN(C)C)cc1)c1ccccc1 [tamoxifen, Tamoxifen]
oligodendrocyte formation in combination with ketoconazole (EpiSC-derived OPCs [3]; 72 h): did not enhance differentiation above levels seen for ketoconazole alone
remyelination of LPC lesion (LPC-lesioned spinal cord): remyelination was widespread throughout the lesion
sterol levels / sterol intermediate accumulation in OPCs (OPCs): induced accumulation of zymostenol and zymosterol and decreased basal sterol levels
inhibition of EBP enzymatic activity (EBP): clear inhibition
sterol intermediate accumulation in human glioma cell line [5]: caused accumulation of the expected sterol intermediates

Cc1cc(C)c(CNC(=O)c2cc(-c3ccc(CN4CCOCC4)cc3)cc3c2cnn3C2CCCC2)c(=O)[nH]1 [EPZ005687]
formation of MBP+ oligodendrocytes from OPCs (EpiSC-derived OPCs [3]; 72 h): enhanced oligodendrocyte formation in both our mouse epiblast stem cell-derived OPCs and mouse primary OPCs
cell viability (% relative to DMS0) (EpiSC-derived OPCs [1]): 91.36%
% 0ligos (EpiSC-derived OPCs [1]): 50.00%
fold induction at 2 µM (EpiSC-derived OPCs [1]): 5.9
sterol levels / sterol intermediate accumulation in OPCs (OPCs): uniquely caused accumulation of zymosterol and zymostenol in OPCs
inhibition of EBP enzymatic activity (EBP): directly inhibiting EBP enzymatic activity
